Test results: article PMC8524670 (Pharmacology Research & Perspectives, 2021)

Legend:
[1] = target: T1, CYP2C8 (Homo sapiens, UniProt P10632); test: CYP reversible inhibition in HLMs; settings: amodiaquine
T1 sequence (P10632 1-490): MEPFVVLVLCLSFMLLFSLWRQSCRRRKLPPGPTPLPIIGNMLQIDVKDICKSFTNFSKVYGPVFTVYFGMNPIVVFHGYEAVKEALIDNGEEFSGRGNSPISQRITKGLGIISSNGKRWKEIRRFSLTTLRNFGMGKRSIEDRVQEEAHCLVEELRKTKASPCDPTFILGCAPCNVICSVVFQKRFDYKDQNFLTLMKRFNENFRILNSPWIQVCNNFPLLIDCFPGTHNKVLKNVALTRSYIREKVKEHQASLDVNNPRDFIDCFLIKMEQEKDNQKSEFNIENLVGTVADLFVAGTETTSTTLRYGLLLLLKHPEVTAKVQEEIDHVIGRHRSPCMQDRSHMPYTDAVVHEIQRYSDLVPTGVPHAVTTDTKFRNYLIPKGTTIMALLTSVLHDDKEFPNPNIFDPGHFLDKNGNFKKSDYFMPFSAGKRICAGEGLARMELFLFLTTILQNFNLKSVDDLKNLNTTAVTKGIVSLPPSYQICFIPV

[2] = target: T2, OAT1 (Homo sapiens, UniProt Q4U2R8); test: SLC transportation assay in HEK293 cells; settings: uptake ratios <2 at 0.1, 0.3, 5 µM
T2 sequence (Q4U2R8 1-563): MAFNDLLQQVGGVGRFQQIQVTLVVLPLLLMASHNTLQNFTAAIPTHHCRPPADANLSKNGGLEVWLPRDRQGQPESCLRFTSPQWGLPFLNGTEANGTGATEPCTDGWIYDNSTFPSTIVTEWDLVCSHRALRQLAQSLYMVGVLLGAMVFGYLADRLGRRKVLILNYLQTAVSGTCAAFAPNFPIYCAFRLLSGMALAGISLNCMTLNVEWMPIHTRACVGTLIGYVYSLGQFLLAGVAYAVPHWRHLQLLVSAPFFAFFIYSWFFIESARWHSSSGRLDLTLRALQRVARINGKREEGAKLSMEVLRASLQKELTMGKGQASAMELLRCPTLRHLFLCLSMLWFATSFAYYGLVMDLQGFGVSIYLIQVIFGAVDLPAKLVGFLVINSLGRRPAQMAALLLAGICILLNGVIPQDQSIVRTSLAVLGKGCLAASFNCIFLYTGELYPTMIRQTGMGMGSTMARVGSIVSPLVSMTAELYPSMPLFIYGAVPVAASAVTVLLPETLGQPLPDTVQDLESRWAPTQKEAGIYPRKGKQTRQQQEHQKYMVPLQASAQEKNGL

[3] = test system: BCRP; settings: coadministration of zanubrutinib; cited from earlier work
[4] = estimated from PBPK modeling; cited from earlier work
[5] = test system: CYP3A; test: Time-dependent CYP inhibition in HLMs; settings: 10 µM zanubrutinib, 30 min pre-incubation with HLMs and NADPH
[6] = target: P-gp (Homo sapiens, UniProt P08183); test: P-gp transportation in MDCK-MDR1 cells; assay type: in vitro ADME
P-gp, sequence (P08183 whole entry): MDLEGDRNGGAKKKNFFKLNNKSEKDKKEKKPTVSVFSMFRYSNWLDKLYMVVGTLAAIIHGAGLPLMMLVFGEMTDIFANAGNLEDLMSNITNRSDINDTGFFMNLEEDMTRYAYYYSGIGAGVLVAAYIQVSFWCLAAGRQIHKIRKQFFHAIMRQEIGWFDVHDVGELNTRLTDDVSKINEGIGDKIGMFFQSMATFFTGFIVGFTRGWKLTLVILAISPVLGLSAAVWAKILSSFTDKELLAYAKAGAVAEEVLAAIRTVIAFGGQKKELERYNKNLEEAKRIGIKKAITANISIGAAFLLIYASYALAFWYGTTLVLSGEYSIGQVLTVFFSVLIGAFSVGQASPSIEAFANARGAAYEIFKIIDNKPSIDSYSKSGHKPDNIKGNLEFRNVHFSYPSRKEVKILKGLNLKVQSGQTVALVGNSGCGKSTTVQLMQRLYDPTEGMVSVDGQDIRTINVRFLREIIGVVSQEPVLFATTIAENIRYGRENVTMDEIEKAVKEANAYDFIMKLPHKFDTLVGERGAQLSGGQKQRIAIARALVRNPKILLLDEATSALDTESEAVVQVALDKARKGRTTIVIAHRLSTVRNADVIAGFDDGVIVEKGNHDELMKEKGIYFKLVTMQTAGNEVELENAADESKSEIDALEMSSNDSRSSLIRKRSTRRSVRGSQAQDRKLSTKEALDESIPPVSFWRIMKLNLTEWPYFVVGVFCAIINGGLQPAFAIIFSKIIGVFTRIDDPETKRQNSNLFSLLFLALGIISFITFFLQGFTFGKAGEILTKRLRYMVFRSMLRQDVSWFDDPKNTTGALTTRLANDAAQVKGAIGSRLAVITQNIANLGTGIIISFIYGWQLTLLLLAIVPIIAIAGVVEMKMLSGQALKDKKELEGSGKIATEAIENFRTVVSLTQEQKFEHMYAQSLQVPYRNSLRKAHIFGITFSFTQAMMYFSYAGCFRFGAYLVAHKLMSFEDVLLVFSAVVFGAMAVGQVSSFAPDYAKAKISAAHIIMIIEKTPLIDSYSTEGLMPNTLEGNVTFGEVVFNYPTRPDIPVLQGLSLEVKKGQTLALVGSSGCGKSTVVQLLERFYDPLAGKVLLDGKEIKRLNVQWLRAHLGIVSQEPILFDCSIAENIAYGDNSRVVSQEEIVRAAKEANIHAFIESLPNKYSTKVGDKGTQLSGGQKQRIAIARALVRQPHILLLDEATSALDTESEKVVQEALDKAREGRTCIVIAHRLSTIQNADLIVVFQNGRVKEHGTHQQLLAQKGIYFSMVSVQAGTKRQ

[7] = target: CYP2D6 (Homo sapiens, UniProt P10635); test: CYP reversible inhibition in HLMs; assay type: in vitro ADME
CYP2D6, sequence (P10635 whole entry): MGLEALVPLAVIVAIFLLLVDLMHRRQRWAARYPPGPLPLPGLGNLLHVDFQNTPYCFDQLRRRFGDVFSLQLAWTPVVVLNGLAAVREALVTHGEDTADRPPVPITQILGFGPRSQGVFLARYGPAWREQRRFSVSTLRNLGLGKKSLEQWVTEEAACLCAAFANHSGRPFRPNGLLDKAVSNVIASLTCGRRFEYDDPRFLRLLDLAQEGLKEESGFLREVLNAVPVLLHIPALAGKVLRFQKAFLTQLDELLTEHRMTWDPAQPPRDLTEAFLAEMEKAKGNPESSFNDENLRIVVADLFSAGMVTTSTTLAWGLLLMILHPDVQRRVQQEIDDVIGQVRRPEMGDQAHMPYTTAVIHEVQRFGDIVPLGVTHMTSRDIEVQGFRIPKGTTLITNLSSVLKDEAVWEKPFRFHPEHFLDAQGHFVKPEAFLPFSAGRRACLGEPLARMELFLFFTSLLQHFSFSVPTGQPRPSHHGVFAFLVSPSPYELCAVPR

[8] = Clinical pharmacokinetic parameters of zanubrutinib; assay type: in vivo, human
[9] = target: T3, CYP1A2 (Homo sapiens, UniProt P05177); test: biochemical; assay type: in vitro ADME
T3 sequence (P05177 1-516): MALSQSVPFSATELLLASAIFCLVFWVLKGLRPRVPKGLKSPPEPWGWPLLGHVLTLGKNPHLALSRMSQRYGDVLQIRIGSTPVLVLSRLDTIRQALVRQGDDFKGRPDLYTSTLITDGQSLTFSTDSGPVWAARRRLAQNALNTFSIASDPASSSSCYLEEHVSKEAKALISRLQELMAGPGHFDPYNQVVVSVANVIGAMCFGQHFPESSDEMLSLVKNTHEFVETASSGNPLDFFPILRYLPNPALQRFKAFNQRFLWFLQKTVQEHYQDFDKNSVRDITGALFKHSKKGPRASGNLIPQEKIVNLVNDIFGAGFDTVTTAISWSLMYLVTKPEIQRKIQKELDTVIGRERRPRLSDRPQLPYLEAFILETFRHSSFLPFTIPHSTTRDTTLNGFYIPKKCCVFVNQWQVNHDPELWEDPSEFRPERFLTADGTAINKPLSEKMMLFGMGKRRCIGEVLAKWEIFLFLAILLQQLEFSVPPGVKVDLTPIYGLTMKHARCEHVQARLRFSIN

[10] = target: T1, CYP2C8; test: Time-dependent CYP inhibition in HLMs; settings: 10 µM zanubrutinib, 30 min pre-incubation with HLMs and NADPH
[11] = test system: CYP3A4; settings: coadministration of zanubrutinib; cited from earlier work
[12] = test system: CYP3A; settings: cited from earlier work

Structure (SMILES): C=CC(=O)N1CCC([C@@H]2CCNc3c(C(N)=O)c(-c4ccc(Oc5ccccc5)cc4)nn32)CC1 [zanubrutinib]
- R1 ([1]; DDI basic model, hepatic): 1.05
- Ah ([1]; static model term, liver inhibition): 0.95
- Substrate status [2]: unlikely to be a substrate
- Effect on exposure of BCRP probe rosuvastatin [3]: did not significantly affect the exposure
- Fg (fraction available after intestinal metabolism) [4]: 0.44
- Percent loss of enzymatic activity [5]: 19.2%
- Papp A→B at 90 min, 1 µM ([6]; dog, MDCK-MDR1): 9.16 ± 0.1 ×10⁻⁶ cm/s
- Papp A→B at 90 min, 10 µM ([6]; dog, MDCK-MDR1): 21.9 ± 0.049 ×10⁻⁶ cm/s
- Papp B→A at 90 min, 1 µM ([6]; dog, MDCK-MDR1): 31.7 ± 0.12 ×10⁻⁶ cm/s
- Papp B→A at 90 min, 10 µM ([6]; dog, MDCK-MDR1): 47.9 ± 0.094 ×10⁻⁶ cm/s
- P-gp substrate status ([6]; efflux ratio >2 indicates substrate): potential P‐gp substrate
- IC50 [7]: 72.9 µM
- Ki ([7]; Ki, dextromethorphan, Ki = IC50/2): 36.5 µM
- Ki ([7]; Kiu, dextromethorphan, unbound Ki): 28.8 µM
- R1 ([7]; dextromethorphan, DDI basic model, hepatic): 1.00
- Ah ([7]; dextromethorphan, static model term, liver inhibition): 1.00
- Igut (intestinal concentration, Dose/250 ml) ([8]; 160 mg BID): ~ 1360 µM
- Fa (fraction absorbed) ([8]; estimated from a human mass balance study): 0.70
- IC50 [9]: 121 µM
- Ki ([9]; Ki, phenacetin, Ki = IC50/2): 60.5 µM
- Ki ([9]; Kiu, phenacetin, unbound Ki): 47.8 µM
- R1 ([9]; phenacetin, DDI basic model, hepatic): 1.00
- Ah ([9]; phenacetin, static model term, liver inhibition): 1.00
- Percent loss of enzymatic activity [10]: 21.9%
- Reduction of AUC of CYP3A probe midazolam [11]: 47.5%
- Reduction in AUC0‐inf of zanubrutinib ([12]; co-administered with CYP3A inducer rifampin): 13.5 fold
- Increase in AUC0‐inf of zanubrutinib ([12]; co-administered with CYP3A inhibitor itraconazole): 3.8 fold
